Test results published in PMC4567993, “A Novel Trypsin Inhibitor-Like Cysteine-Rich Peptide from the Frog Lepidobatrachus laevis Containing Proteinase-Inhibiting Activity” (Natural Products and Bioprospecting, 2015).
Each block holds one substance with its values, some of them ahead of it. No end group written: not given here.

Columns and labels:
elastase [1] = test system: elastase; design: method as in 3 sources, ref [14] = [14]; PMID 23533574; doi:10.1371/journal.pone.0057529; 14. Chen ZY Wang B Hu J Yang WS Cao ZJ Zhuo RX Li W Wu Y PLoS ONE 2013 8 e57529 10.1371/journal.pone.0057529 23533574 PMC3606364 ||| ref [15] = [15]; PMID 16191451; doi:10.1016/j.peptides.2005.07.013; 15. Fogaca AC Almeida IC Eberlin MN Tanaka AS Bulet P Daffre S Peptides 2006 27 667 674 10.1016/j.peptides.2005.07.013 16191451 ||| ref [20] = [20]; PMID 23200835; doi:10.1016/j.bbrc.2012.11.056; 20. Kim BY Lee KS Wan H Zou FM Choi YS Yoon HJ Kwon HW Je YH Jin BR Biochem. Biophys. Res. Commun. 2013 430 144 149 10.1016/j.bbrc.2012.11.056 23200835; conditions: ref [15]; cited from earlier work
[2] = design: method as in PMID 16191451; conditions: ref [15]; cited from earlier work
chymotrypsin [3] = test system: chymotrypsin; design: method as in 2 sources, one per row (each row's own in cited_ref): ref [15] = [15]; PMID 16191451; doi:10.1016/j.peptides.2005.07.013; 15. Fogaca AC Almeida IC Eberlin MN Tanaka AS Bulet P Daffre S Peptides 2006 27 667 674 10.1016/j.peptides.2005.07.013 16191451 ||| ref [20] = [20]; PMID 23200835; doi:10.1016/j.bbrc.2012.11.056; 20. Kim BY Lee KS Wan H Zou FM Choi YS Yoon HJ Kwon HW Je YH Jin BR Biochem. Biophys. Res. Commun. 2013 430 144 149 10.1016/j.bbrc.2012.11.056 23200835; conditions: ref [15]; cited from earlier work
plasmin = test: Plasmin inhibition, chromogenic substrate; format: biochemical; conditions: 0.05 M Tris-HCl pH 7.8, 37 °C; LL-TIL 0.0 to 20 μM; pre-incubated 10 min; data not shown
Excerpt: (§1) Presently, the biological role of proteinase inhibitory peptides in amphibian skins is explained mainly by two hypotheses. One is that several enzymes are involved in peptide precursor processing or peptide degradation in the skin and proteinase inhibitors negatively modulate the activity of these proteases to avoid premature degradation or release of skin peptides. The other hypothesis is that the peptides are surface anti-infective agent similar to AMPs because they inhibit extracellular proteases produced by invading bacteria. […] Further work is needed to address this issue.
(§2) Effects of the tested samples on the hydrolysis of synthetic chromogenic substrates by different serine proteases were assayed in 0.05 M Tris–HCl, pH 7.8 (for trypsin, Sigma T4665; thrombin, Sigma T4393; chymotrypsin, Sigma C4129; elastase, Sigma E1250; plasmin, Sigma P1867) or pH 8.45 (for substilisin, Sigma P5380) buffer at 37 °C. The protease (trypsin, 10 nM; thrombin, 10 nM; chymotrypsin, 21 nM; elastase, 23 nM and substilisin, 30 nM) and different amounts of LL-TIL (final concentrations ranging from 0.0 to 20 μM) were pre-incubated for 10 min at 37 °C. […] The formation of p-nitroaniline was monitored continuously at 405 for 2 min. For chymotrypsin, the reaction was monitored at 253 nm. The inhibition constant Ki was determined according to the reported method.

chymotrypsin [4] = test: Chymotrypsin inhibition, chromogenic substrate; format: biochemical; conditions: chymotrypsin 21 nM; 0.05 M Tris-HCl pH 7.8, 37 °C; monitored at 253 nm; LL-TIL 0.0 to 20 μM; pre-incubated 10 min; data not shown
Excerpt: as §1, §2

substilisin = test: Substilisin inhibition, chromogenic substrate; format: biochemical; conditions: substilisin 30 nM; pH 8.45, 37 °C; LL-TIL 0.0 to 20 μM; pre-incubated 10 min; data not shown
Excerpt: as §1, §2

trypsin = test: Trypsin inhibition, chromogenic substrate (serine protease inhibitory testing); format: biochemical; conditions: for Reciprocal reaction velocity of trypsin, 1/V av / Reaction velocity of trypsin, V av: pH 7.8, 37 °C, means of three duplicate experiments
Protocol: as §2

microorganisms = test: Antimicrobial assay, overall statement; format: cell-based; conditions: recombinant LL-TIL; S. aureus, E. coli, B. subtilis, C. albicans tested
Protocol: (§3) For antimicrobial assays, several microorganisms including Gram positive bacterium S. aureus (ATCC 25923), […] and fungus C. albicans (ATCC 20032) were obtained from Kunming Medical College. They were first grown in LB (Luria–Bertani) broth or yeast extract–peptone–dextrose broth as our previous methods. MIC (minimal inhibitory concentration) of tested sample against these microorganisms was determined as previous reports. The MIC is defined as the lowest concentration of tested sample to inhibit microorganism growth.

[5] = test system: Staphylococcus aureus (ATCC 25923); test: Antimicrobial assay (MIC); format: cell-based; conditions: recombinant LL-TIL, ATCC 25923, Gram positive, data not shown
Protocol: as §3

[6] = test system: Bacillus subtilis (ATCC 6633); test: Antimicrobial assay (MIC); format: cell-based; conditions: recombinant LL-TIL, data not shown
Protocol: as §3

[7] = test system: Escherichia coli (ATCC 25922); test: Antimicrobial assay (MIC); format: cell-based; conditions: recombinant LL-TIL, ATCC 25922, Gram-negative, data not shown
Protocol: as §3

[8] = test system: Candida albicans (ATCC 20032); test: Antimicrobial assay (MIC); format: cell-based; conditions: recombinant LL-TIL, ATCC 20032, fungus, data not shown
Protocol: as §3

thrombin = test: Thrombin inhibition, chromogenic substrate; format: biochemical; conditions: thrombin 10 nM; 0.05 M Tris-HCl pH 7.8, 37 °C; LL-TIL 0.0 to 20 μM; pre-incubated 10 min; data not shown
Excerpt: as §1, §2

elastase [9] = test: Elastase inhibition, chromogenic substrate; format: biochemical; conditions: elastase 23 nM; 0.05 M Tris-HCl pH 7.8, 37 °C; LL-TIL 0.0 to 20 μM; pre-incubated 10 min; data not shown
Excerpt: as §1, §2

trypsin (Sigma T4665) = test: enzyme inhibition kinetics (chromogenic substrate, Dixon plot); trypsin 10 nM pre-incubated with LL-TIL for 10 min at 37 °C in 0.05 M Tris-HCl, pH 7.8; reaction started with substrate B-3133; p-nitroaniline followed at 405 for 2 min; Ki by Dixon plot from velocities at [S] = 0.2 and 0.4 mM

Substance: Ixodidin: from hemocytes of the cattle tick
inhibition of elastase (elastase [1]): able to inhibit
antimicrobial activity [2]: weak antimicrobial activities
inhibition of chymotrypsin (chymotrypsin [3]): able to inhibit

Substance: IRCPKDKIYKFCGSPCPPSCKDLTPNCIAVCKKGCFCRDGTVDNNHGKCVKKENC (disulfide (positions not given here)) [LL-TIL]
inhibition of hydrolysis of chromogenic substrate by plasmin (plasmin): did not inhibit
inhibition of hydrolysis of chromogenic substrate by chymotrypsin (chymotrypsin [4]): did not inhibit
inhibition of hydrolysis of chromogenic substrate by substilisin (substilisin): did not inhibit
inhibition of trypsin (in words) (trypsin; 0.05 M Tris-HCl pH 7.8, 37 °C, trypsin 10 nM, LL-TIL 0.0 to 20 μM): inhibited the activity of trypsin
Reciprocal reaction velocity of trypsin, 1/V av (trypsin; [I] = 12.987 μM, [S] = 0.2 mM, 1/V av at [I] 0: 3.7864): 5.2826
Reaction velocity of trypsin, V av (trypsin; [I] = 12.987 μM, [S] = 0.2 mM, V av at [I] 0: 0.2641): 0.1893
Reciprocal reaction velocity of trypsin, 1/V av (trypsin; [I] = 12.987 μM, [S] = 0.4 mM, 1/V av at [I] 0: 2.7352): 3.8700
Reaction velocity of trypsin, V av (trypsin; [I] = 12.987 μM, [S] = 0.4 mM, V av at [I] 0: 0.3656): 0.2584
Reciprocal reaction velocity of trypsin, 1/V av (trypsin; [I] = 25.974 μM, [S] = 0.2 mM, 1/V av at [I] 0: 3.7864): 7.3116
Reaction velocity of trypsin, V av (trypsin; [I] = 25.974 μM, [S] = 0.2 mM, V av at [I] 0: 0.2641): 0.1368
Reciprocal reaction velocity of trypsin, 1/V av (trypsin; [I] = 25.974 μM, [S] = 0.4 mM, 1/V av at [I] 0: 2.7352): 4.8481
Reaction velocity of trypsin, V av (trypsin; [I] = 25.974 μM, [S] = 0.4 mM, V av at [I] 0: 0.3656): 0.2063
Ki (trypsin; recombinant LL-TIL, trypsin 10 nM, 0.05 M Tris-HCl pH 7.8, 37 °C, pre-incubated 10 min, chromogenic substrate B-3133, p-nitroaniline at 405 for 2 min, Dixon plot, [S] 0.2 and 0.4 mM): 16.5 µM
antimicrobial activity (overall) (microorganisms): no antimicrobial activity
antimicrobial ability against S. aureus [5]: no antimicrobial abilities
antimicrobial ability against B. subtilis [6]: no antimicrobial abilities
antimicrobial ability against E. coli [7]: no antimicrobial abilities
antimicrobial ability against C. albicans [8]: no antimicrobial abilities
inhibition of hydrolysis of chromogenic substrate by thrombin (thrombin): did not inhibit
inhibition of hydrolysis of chromogenic substrate by elastase (elastase [9]): did not inhibit

Ki (trypsin (Sigma T4665)): 16.5 µM
Substance: LL-TIL (trypsin inhibitor-like cysteine-rich peptide from Lepidobatrachus laevis), recombinant mature peptide
